The target of this test is Mitogen-activated protein kinase 1 (Mus musculus, UniProt P63085). Briefly: IMAP Assay: Activated ERK2 activity was determined in the IMAP assay format.

SMILES strings stand for the structures.

Chain of Mitogen-activated protein kinase 1 (P63085 whole entry): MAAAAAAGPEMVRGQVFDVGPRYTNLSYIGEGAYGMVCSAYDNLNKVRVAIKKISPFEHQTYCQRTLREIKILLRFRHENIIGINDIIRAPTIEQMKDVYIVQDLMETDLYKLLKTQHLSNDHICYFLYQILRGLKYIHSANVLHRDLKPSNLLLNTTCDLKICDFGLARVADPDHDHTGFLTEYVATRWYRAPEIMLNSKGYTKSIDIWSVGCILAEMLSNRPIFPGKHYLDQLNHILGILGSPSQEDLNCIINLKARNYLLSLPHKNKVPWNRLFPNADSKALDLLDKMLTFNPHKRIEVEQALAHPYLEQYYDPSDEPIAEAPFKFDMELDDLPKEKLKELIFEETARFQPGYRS

`COC[C@@]1(C(=O)Nc2ccc3[nH]nc(-c4ccnc(C5CC5)c4)c3c2)CCN(CC(=O)N2CC=C(c3ccc(-c4ncccn4)cc3)CC2)C1`: it took 18.1 nM to reach half-maximal inhibition (IC50). That is a double-digit nanomolar value.

The record behind these values is ChEMBL document CHEMBL3638513, “Compounds that are ERK inhibitors” (2013).
